The conditions of data set [1]: rat, in vivo, ip.
Another data set addresses BttxB (Clostridium botulinum, UniProt P10844). The experiment in a line: biochemical.
The next data set relates to Bttxs. The note with it: cited from earlier work.
The target in data set [2] is T1, Botulinum toxin B, P10844.
T1 chain: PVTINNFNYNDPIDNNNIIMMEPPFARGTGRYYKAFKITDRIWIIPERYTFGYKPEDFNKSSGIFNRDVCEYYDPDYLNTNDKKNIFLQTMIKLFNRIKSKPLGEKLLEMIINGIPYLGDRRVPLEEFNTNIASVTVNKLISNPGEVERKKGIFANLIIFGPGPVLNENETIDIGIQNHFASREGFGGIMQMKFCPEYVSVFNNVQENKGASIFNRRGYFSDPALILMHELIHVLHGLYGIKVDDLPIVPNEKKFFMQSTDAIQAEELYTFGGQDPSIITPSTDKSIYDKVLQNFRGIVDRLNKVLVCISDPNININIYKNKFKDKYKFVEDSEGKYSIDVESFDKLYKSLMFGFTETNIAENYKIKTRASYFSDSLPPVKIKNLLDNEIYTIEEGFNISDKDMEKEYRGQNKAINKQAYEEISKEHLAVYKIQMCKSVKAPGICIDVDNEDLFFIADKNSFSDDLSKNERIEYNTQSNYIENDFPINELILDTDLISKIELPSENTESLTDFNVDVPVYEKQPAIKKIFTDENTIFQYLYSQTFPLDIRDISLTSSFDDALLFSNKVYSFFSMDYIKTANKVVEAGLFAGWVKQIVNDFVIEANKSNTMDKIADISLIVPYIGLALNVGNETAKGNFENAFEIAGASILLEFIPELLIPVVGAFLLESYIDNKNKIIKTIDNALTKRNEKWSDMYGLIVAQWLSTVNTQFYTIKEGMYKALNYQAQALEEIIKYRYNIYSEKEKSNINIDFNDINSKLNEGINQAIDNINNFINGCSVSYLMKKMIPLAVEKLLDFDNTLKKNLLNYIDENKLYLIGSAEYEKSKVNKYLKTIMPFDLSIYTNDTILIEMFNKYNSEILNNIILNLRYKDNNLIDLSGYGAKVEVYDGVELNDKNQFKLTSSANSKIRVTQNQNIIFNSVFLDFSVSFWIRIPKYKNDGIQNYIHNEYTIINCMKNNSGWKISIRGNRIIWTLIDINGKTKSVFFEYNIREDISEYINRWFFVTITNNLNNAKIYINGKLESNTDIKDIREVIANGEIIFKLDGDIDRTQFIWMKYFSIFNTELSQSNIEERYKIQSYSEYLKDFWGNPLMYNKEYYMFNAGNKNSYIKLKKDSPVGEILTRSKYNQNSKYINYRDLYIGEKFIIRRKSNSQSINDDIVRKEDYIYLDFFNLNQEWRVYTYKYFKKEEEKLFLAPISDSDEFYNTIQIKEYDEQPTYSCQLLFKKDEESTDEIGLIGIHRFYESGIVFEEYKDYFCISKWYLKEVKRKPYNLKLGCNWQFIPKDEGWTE
The experiment in a line: cell-based or functional assay.

Ends that are not written are not given here.

We go through nine molecules from patent US6573244B1 (priority 1999, dated 2003).

In general, IC50 refers to the concentration that inhibits the measured activity by half. High values mean a need for much substance, low ones inhibition by little substance. In the case of `CC(C)C[C@H](NC(=O)CNC(=O)[C@H](C)NC(=O)[C@H](CCCNC(=N)N)NC(=O)[C@H](CO)NC(=O)[C@H](CO)NC(=O)[C@H](CCCNC(=N)N)NC(=O)[C@@H](NC(=O)[C@H](CCCCN)NC(=O)[C@H](C)NC(=O)[C@H](CCCCN)NC(=O)[C@H](C)NC(=O)[C@H](CCCNC(=N)N)NC(=O)[C@@H](NC(=O)[C@H](CCCCN)NC(=O)CNC(=O)CNC(=O)[C@H](CCC(N)=O)NC(=O)[C@H](CCCCN)NC(=O)CNC(=O)[C@H](CCCNC(=N)N)NC(=O)CNC(=O)[C@H](C)N)C(C)C)[C@@H](C)O)C(=O)N[C@@H](CCC(N)=O)C(=O)N[C@@H](Cc1ccccc1)C(=O)N1CCC[C@H]1C(=O)N[C@H](C(=O)NCC(=O)N[C@@H](CCCNC(=N)N)C(=O)N[C@H](C(=O)N[C@@H](Cc1c[nH]cn1)C(=O)N[C@@H](CCCNC(=N)N)C(=O)N[C@@H](CC(C)C)C(=O)N[C@@H](CC(C)C)C(=O)N[C@@H](CCCNC(=N)N)C(=O)N[C@@H](CCCCN)C(=O)NCC(=O)N[C@@H](CC(N)=O)C(=O)N[C@@H](Cc1ccc(O)cc1)C(=O)O)C(C)C)C(C)C` [Buforin I], in data set [1], the “plateau (time to maximal-plateau level)” value is no more than 40 min; the “time the maximal-plateau level was maintained” value is “up to 4 h”; the “time to reach ½ the absorbed maximal value” turned out to be 7.7 min; the “uptake into the blood stream, in words” value is “rapid uptake”. Moreover, on BttxB, the IC50 worked out at 1000 nM; the “mode of inhibition of BttxB activity” value is “dose-dependently and competitively inhibits”; the “substrate of BttxB or not” value is “not to be a substrate”.

For the molecule `C[C@H](CS)C(=O)N1CCC[C@H]1C(=O)O` [captopril], in the data set with Bttxs, the “inhibition of Bttxs, in words” value is on record as “not effective inhibitors”.

Turning to `CC(C)C[C@H](NP(=O)(O)O[C@@H]1O[C@@H](C)[C@H](O)[C@@H](O)[C@H]1O)C(=O)N[C@@H](Cc1c[nH]c2ccccc12)C(=O)O` [phosphoramidon], the “inhibition of Bttxs, in words” value in the data set with Bttxs is on record as “not effective inhibitors”.

Turning to “AGRGKQGGKVRAKAKTRSSRAGLQFPVGRVHRLLRK [Peptide 36]”, the “substrate of BttxB or not” value at BttxB is on record as “not substrates”.

On to ELDDRADALQ [Peptide V2], for which, in the data set with Bttxs, the “inhibition of Bttxs, in words” value is reported as “found to inhibit Bttx activity”.

As for RPKPQQFFGLM [Substance P], at BttxB, the “inhibition of BttxB, in words” value is on record as “weak inhibitor” and the “substrate of BttxB or not” value was “not a substrate”.

TRSRAKGLQFPGLLVHRLLRKGNY [Peptide 05P] displayed a concentration for half-maximal inhibition (IC50) on BttxB of less than 200000 nM.

As for TRSSRAGLQFPVGRVHRLLRKGNY [Peptide 24], on BttxB, the “substrate of BttxB or not” value was “not substrates”.

B1: Peptide 05P (peptide)
peptide: TRSRAKGLQFPGLLVHRLLRKGNY
modifications: not checked
For the molecule B1, in data set [2], the inhibition of botulinum B proteolytic activity is less than 200 µM and the potency of inhibition relative to Substance P is less than 4 fold.
